Assay results published in a melting point compilation (Tetko et al.; mined from patent text by program, amines drawn as free bases though some values may be those of a salt).

| Structure (SMILES) | melting point [°C] |
| --- | --- |
| O=[N+]([O-])c1cc(F)c(N2CCSCC2)c(F)c1 | 104 to 105 |
| C[C@H](Cc1ccc(-c2cc(F)cc(F)c2)cc1)c1ccccc1 | 49.8 to 51.3 |
| CCCCCCCCCCCCCCOc1cc(OCCCCCCc2cccc(O)c2O)cc(C(=O)OC)c1 | 77 to 79 |
| CCn1cc(S(=O)(=O)NC(=O)c2cn3cc(C(F)(F)F)cc(Cl)c3n2)c(Cl)n1 | 184 to 185 |
| COC(=O)c1cnccc1SCc1ccc(OC)cc1 | 108 to 110 |
| CCN(CC)S(=O)(=O)c1cc2oc(-c3ccccc3)nc2c2ccccc12 | 157 |
| COc1cccc(C(C)c2ccc(-c3cnn4c(O)ncnc34)cc2)c1 (stereo unspecified) | 282 to 285 |
| CCC(=O)OCC=C(C)CCC=C(C)CCC=C(C)CCC=C(C)CCC=C(C)CCC=C(C)CCC=C(C)CCC=C(C)CCC=C(C)C | 33 to 35 |
| CC(C)CCCC(C)C1CCC2C3CC=C4CCCCC4(C)C3CCC12C (stereo unspecified) | 90 to 92 |
| COCON=C(C(=O)C=CN(C)C)C(=O)OC | 99 to 100 |
| Cc1nsc(-c2ccc(Cl)nn2)n1 | 180 |
| COc1ccc2c(c1)C(=O)NC(C(Cl)(Cl)Cl)O2 (stereo unspecified) | 162 to 165 |
| CC(C)n1c(CO)c(-c2ccc(F)cc2)c(-c2ccccc2)c1C(=O)NCCc1cccnc1 | 167 to 169 |
| CN1CCN(C2CCN(c3ccc(Nc4ncc5cc6ccccc6n5n4)cc3)CC2)CC1 | 226 to 229 |
| Cc1ccc(C#N)c(OCc2ccc(OCc3nc(-c4ccccc4)oc3C)cc2)n1 | 116 to 117 |
| COC(=O)C(C)Oc1ccc(Oc2ncc(Cl)cc2N)cc1 (stereo unspecified) | 92 to 94 |
| CCOC(=O)C(Cc1cnc2ccc(OC)cc2c1)NC(=O)OC(C)(C)C (stereo unspecified) | 127 |
| NC(=O)C(=O)c1cccc(Cl)c1Cl | 213 to 214 |
| COc1ccc(Cc2nc3c(c4c2[nH]c2ccccc24)CCC(C)(C)C3)cc1 | 158 |
| COC(=O)c1c(Cl)cc(Cl)cc1NC(=O)CSc1ccccc1C(=O)O | 165 to 166 |

| Structure (SMILES) | melting point [°C] |
| --- | --- |
| CCCCCCC(C(=O)N1CCC[C@H]1C(=O)O)n1cnc2cc(-c3ccccc3-c3nn[nH]n3)ccc21 (stereo partly specified) | 145 to 150 |
| CC1(C(=O)C(C(O)C(Cl)(Cl)Cl)n2cncn2)CC1 (stereo unspecified) | 216 to 218 |
| N#CC(=C1CSc2ccccc2N1)c1ccc(Cl)cc1 | 137 to 139 |
| COc1ccc2ccc(N3C(=O)c4ccccc4C3NCCCN(C)C)nc2n1 (stereo unspecified) | 128 |
| CC1=C(/C=C/C(C)=C/C=C/C(C)=C\C(=O)O)C(C)(C)C(O)CC1 (stereo unspecified) | 152 to 154 |
| CN1C(=O)CC[C@]2(C)c3ccc(-c4ccc5ccccc5n4)cc3CC[C@@H]12 | 140 to 145 |
| Cc1cc(-c2ccccc2)n2nc(N3CCN(Cc4ccccc4)CC3)c(C#N)c2n1 | 160 to 164 |
| Cc1cccc(N2C(=O)NCc3cccnc32)c1 | 212 to 214 |
| O=C(O)Cc1ccc(C(=O)O)cc1 | 235 to 237 |
| CCc1cc(-n2c(=O)[nH]c3cc(C(F)(F)F)c(Oc4ccccc4)cc32)c(OC)cc1OC | > 240 |
| O=C(O)CCc1oc(SCc2cccnc2)nc1-c1ccc(Cl)cc1 | 129 to 130 |
| CC(=O)NS(=O)(=O)c1cccc(NC(=O)NC2N=C(c3ccccc3F)c3ccccc3N(CC(=O)N3CC4CCC(CC4)C3)C2=O)c1 (racemic) | 193 to 203 |
| CCOC(=O)c1cn(NCC(=O)OC(C)(C)C)c2c(F)c(F)c(F)cc2c1=O | 99.5 to 102 |
| Cc1nc2c(CCc3ccccc3)cccn2c1CC#N | 120 to 123 |
| Nc1nc(NCCN2CCCCC2)nc(-c2cc(Cl)ccc2Cl)n1 | 179 to 181 |
| Cc1cc(N)c([N+](=O)[O-])cc1OS(C)(=O)=O | 128 |
| N#Cc1c(N2CCN(C(=O)C3CCCO3)CC2)c2ccccc2n(Cc2ccc(F)cc2)c1=O (stereo unspecified) | 123 to 135 |
| CC(C)N(Cc1coc(-c2ncn3c2CN(C)C(=O)c2c(Cl)cccc2-3)n1)C(C)C | 164 to 166 |
| CCOC(=O)N1CCN(CCCCCCNc2cc(OC)cc3c(C)ccnc23)CC1 | 59 to 60 |
| CC1(C)Oc2ccc(-c3c(NCCO)c(=O)c3=O)cc2[C@@H](N2Cc3ccccc3C2=O)[C@@H]1O (relative stereo) | 205 to 215 |

| Structure (SMILES) | melting point [°C] |
| --- | --- |
| Cc1cn2c(=O)c3c(F)cccc3nc2s1 | 245 to 246 |
| CSc1ccc(NC(=O)NCc2cc(C(C)(C)C)c(O)c(C(C)(C)C)c2)cc1 | 141 to 145 |
| C=CCc1cc(NC(C)=O)ccc1OCC1(O)CN2CCC1CC2 (stereo unspecified) | 170 to 172 |
| CCCN(CCC)[C@H]1Cc2ccc(OCC)cc2[C@@H]1O | 74 to 75 |
| COc1ccc(CCOc2ccc(NC(=O)c3cc(F)cc(N4CCCCC4)c3)c3ccccc23)cc1OC | 158 to 160 |
| CC(=O)OCC1OC(n2cc(C(Br)=CI)c(=O)[nH]c2=O)C(OC(C)=O)C1OC(C)=O (stereo unspecified) | 86 to 88 |
| Cc1ccc(N2CCN(Cc3ccc4c(c3)NC(=O)CO4)CC2)cc1 | 209 to 212 |
| CC(C)(C)c1ccc(Nc2ncc(-c3ccc4ncncc4c3)c3ccccc23)cc1 | 213 to 214 |
| CN(C)CC/C=C1/c2ccccc2COc2ccc(C(=O)O)cc21 | 121 to 123 |
| COC1=C(OC)C(=O)C2=C(CC(CCCCCCCC(=O)O)(C(=O)O)C2)C1=O | 119 to 123 |
| COc1cc(CCC(=O)O)ccc1OCc1oc(-c2ccc(C(F)(F)F)cc2)nc1C | 162 to 163 |
| C(#Cc1cccnc1)c1ccccc1 | 42 to 43 |
| CNCc1ccc(C2=NCCN2C(=O)OC(C)(C)C)cc1 | 65 |
| CN(C)c1c(F)c(F)c(F)c2c1c(=O)cc(C(=O)O)n2C1CC1 | 160 to 163 |
| COC(=O)c1nc(-c2ccc(Cl)c(OC)c2F)nc(N)c1OCC(F)(F)F | 123 to 125 |
| O=C(O)CCCCCOc1ccc(C2OC3C(CO)OC(n4cnc5c(Cl)ncnc54)C3O2)cc1 (stereo unspecified) | 127 to 129 |
| COc1cc(F)ccc1-c1ccc(S(=O)(=O)N2c3ccccc3CC2C(=O)NCc2ccccc2N)cc1 (stereo unspecified) | 92 to 97 |
| CS(=O)(=O)c1ccc(-c2nc(C(F)(F)F)nc(OS(=O)(=O)c3cccc4ccccc34)c2-c2ccccc2)cc1 | 204 to 206 |

Continued, values first:

| melting point [°C] | Structure (SMILES) |
| --- | --- |
| 124 to 126 | COC(=O)C(=O)c1ccccc1Nc1c(Cl)cccc1Cl |
| 181 to 182 | Cc1ccc(C(=S)NCCCCCCCNC(=S)c2ccc(C)cc2)cc1 |
| 115 to 116 | CCOC(=O)CC(=O)c1cc(F)c(S(=O)CC)nc1Nc1ccc(F)cc1F (stereo unspecified) |
| 240 | CCC(C(=O)O)c1cccc(C(=O)c2cc3cc(C(=O)O)sc3s2)c1 (stereo unspecified) |
| 166 to 169 | CC(C)(C)OC(=O)N1CC[C@H]2c3c(-c4ccccc4F)cccc3N(C(=O)OC(C)(C)C)[C@H]2CC1 (relative stereo) |
| 132 | N#CCCN(Cc1ccccc1)CC(O)CO (stereo unspecified) |
| 74 to 75 | CC(O)(CCO)c1ccc(Oc2ccccc2)cc1 (stereo unspecified) |
| 220 | COc1ccc(-c2nc3cnccc3[nH]2)c(OC(C)C)c1 |
| 183 to 185 | COc1ccc(C(=O)Nc2ccccc2)cc1NC(=S)Nc1cccc(C#N)c1 |
| 158 to 160 | CC(=O)NCC1CN(c2ccc(N3CCC(n4cc(C5(C)CO5)nn4)CC3)c(F)c2)C(=O)O1 (stereo unspecified) |
| 179 to 181 | Cc1c(C(N)=O)ncn1-c1cccc(Cl)c1 |
| 191 | CN(c1cccc2cc(C3=NCC4(CCN(CC(C)(C)O)CC4)S3)[nH]c12)S(=O)(=O)c1cccs1 |
| 186 to 187 | CSc1c(C(Cc2ccccc2)C(=O)O)cc(C)c2c1[nH]c1ccccc12 (stereo unspecified) |
| 184 to 186 | CCCCc1oc2ccccc2c1-c1ncc(-c2ccc3cc(O)ccc3c2)o1 |
| 152 to 154 | CCOC(=O)c1cn(-c2ccc(F)cc2F)c2c(F)c(F)c(F)c(C)c2c1=O |
| 101 to 103 | CCCCc1nc(Cl)c(CO)n1Cc1ccc(N)cc1 |
| 229 to 235 | COc1cc2oc(=O)c(CCO)c(C)c2cc1O |
| 94 to 96 | CCOC(=O)NCCN1c2ccccc2N2CCc3cccc(c32)C1C (stereo unspecified) |
| 174 to 176 | CC(=O)N=C1C(OC(C)=O)=C(NC(C)=O)C2CC(=O)CC1C2NC(C)=O (stereo unspecified) |

| melting point [°C] | Structure (SMILES) |
| --- | --- |
| 140 to 142 | CCNS(=O)(=O)CC(=O)C1=C(C)NC(C)=C(C(=O)OC(C)C)C1c1cccc([N+](=O)[O-])c1 (stereo unspecified) |
| 165 to 169 | CC(C)C[C@H](NC(=O)c1ccc(C(=N)N)cc1)C(=O)N1CCc2nn(CC(=O)O)cc2C1 |
| 114 to 117 | CC(C)=CCCC(C)C1CCC2C3=CC=C4CC(O)CCC4(C)C3CCC21C (stereo unspecified) |
| 99 to 100 | O=C1CCCN1C(=O)Oc1ccc(Cl)cc1 |
| 156 | CCCN(CCCCN1CCN(c2ccccc2)CC1)C1CCc2nc(N)sc2C1 (stereo unspecified) |
| 90 | CCCCCCCCOc1ccc(C(=O)NN)cc1 |
| 197 to 199 | Oc1ccc(-c2nc3cc(O)c(Cl)cc3o2)cc1F |
| 215 to 222 | O=C(O)CCc1cc2cc(Cl)ccc2n1S(=O)(=O)c1cccc2cccnc12 |
| 74 to 76 | CCOC(=O)CCCNc1cc(OC)c(OC)cc1C(C)=O |
| 190 to 191 | Cc1ccc(O)c(Cl)n1 |
| 130 to 136 | COc1ccc(CCNC(=O)c2ccc3n2Cc2ccccc2N(C(=O)c2ccc(-c4ccccc4C)c(C)c2)C3)cc1OC |
| 170 to 172 | CC(C)(C)c1cc(C(C)(C)C)c(Br)c(C(C)(C)C)c1 |
| 176 to 177 | COc1ccc(C2=NN(c3nc4ccccc4s3)C(=O)[C@H]3CC=CC[C@@H]23)cc1OC (relative stereo) |
| 193 to 196 | NC(=O)N1CCN(CC(O)COc2ccc(Cl)cc2)CC1 (stereo unspecified) |
| 201 | O=C(O)Cc1coc2cc(OCc3cc(-c4ccc(C(F)(F)F)cc4)on3)ccc12 |
| 209 to 210 | CCOC(=O)/C(=N\OC1CCNC1=O)c1csc(NC(c2ccccc2)(c2ccccc2)c2ccccc2)n1 (stereo unspecified) |
| 115 | CCNc1c(O)ccc(N(CCO)CCO)c1[N+](=O)[O-] |
| 198 to 200 | CCCOc1ccc(S(=O)(=O)N2CCN(Cc3ccccc3)CC2)cc1-c1nc2cc(Cl)c([N+](=O)[O-])cc2c(=O)[nH]1 |
| 182 | CCOC(=O)C(=NOC(C)C)c1csc(NC(c2ccccc2)(c2ccccc2)c2ccccc2)n1 |
